In ChEMBL document CHEMBL1806406, “Antiplasmodial and cytotoxicity evaluation of 3-functionalized 2-azetidinone derivatives” (Bioorg Med Chem Lett, 2011):
Each block holds one compound with its values, some of them ahead of it.

Tests used:
Plasmodium falciparum [1] = assay: Antiplasmodial activity against chloroquine-sensitive Plasmodium falciparum D10; assay type: functional, organism-based
Plasmodium falciparum [2] = assay: Antiplasmodial activity against chloroquine-resistant Plasmodium falciparum W2; assay type: functional, organism-based
Plasmodium falciparum [3] = assay: Antiplasmodial activity against chloroquine-sensitive Plasmodium falciparum 3D7; assay type: functional, organism-based
Plasmodium falciparum [4] = assay: Antiplasmodial activity against chloroquine-resistant Plasmodium falciparum K1; assay type: functional, organism-based
KB [5] = assay: Cytotoxicity against human KB cells assessed as growth inhibition at 10 uM; assay type: functional; details: read-out: GI
KB [6] = assay: Cytotoxicity against human KB cells assessed as growth inhibition at 100 uM; assay type: functional; details: read-out: GI
KB [7] = assay: Cytotoxicity against human KB cells assessed as growth inhibition; assay type: functional, cell-based
KB [8] = assay: Cytotoxicity against human KB cells assessed as growth inhibition at 0.5 uM; assay type: functional; details: read-out: GI

IC50 (Plasmodium falciparum [1]): 29.3 µM
Structure (SMILES): N[C@@H]1C(=O)N(c2ccccc2)[C@@H]1/C=C/c1ccccc1

Structure (SMILES): COC(=O)c1nnn([C@@H]2C(=O)N(c3ccc(C)cc3)[C@@H]2/C=C/c2ccccc2)c1C(=O)OC
IC50 (Plasmodium falciparum [2]): > 20 µM

Structure (SMILES): COC(=O)c1nnn([C@@H]2C(=O)N(c3ccc(Cl)cc3)[C@@H]2/C=C/c2ccccc2)c1C(=O)OC
IC50 (Plasmodium falciparum [3]): 25.1 µM
IC50 (Plasmodium falciparum [4]): 12.3 µM
IC50 (Plasmodium falciparum [2]): > 20 µM
inhibition of growth at 10 µM (KB [5]): 19.5%
inhibition of growth at 100 µM (KB [6]): 56.5%
IC50 (KB [7]): 145 µM

Structure (SMILES): COC(=O)c1nnn([C@@H]2C(=O)N(C3CCCCC3)[C@@H]2/C=C/c2ccccc2)c1C(=O)OC
IC50 (Plasmodium falciparum [3]): > 45.7 µM
IC50 (Plasmodium falciparum [4]): > 45.7 µM
IC50 (Plasmodium falciparum [2]): > 20 µM
inhibition of growth at 10 µM (KB [5]): -7.7%
inhibition of growth at 100 µM (KB [6]): 8.07%
IC50 (KB [7]): > 228 µM

Structure (SMILES): O=C1[C@@H](n2cc(-c3ccccc3)nn2)[C@@H](/C=C/c2ccccc2)N1c1ccc(Cl)cc1
IC50 (Plasmodium falciparum [3]): 7.86 µM
IC50 (Plasmodium falciparum [4]): 7.09 µM
IC50 (Plasmodium falciparum [2]): 1 µM
inhibition of growth at 10 µM (KB [5]): 16.8%
inhibition of growth at 100 µM (KB [6]): 79.3%
IC50 (KB [7]): 84.2 µM

IC50 (Plasmodium falciparum [1]): 10.3 µM
Structure (SMILES): [N-]=[N+]=N[C@@H]1C(=O)N(c2ccccc2)[C@@H]1/C=C/c1ccccc1

Structure (SMILES): O=C1[C@@H](n2cc(-c3ccccc3)nn2)[C@@H](/C=C/c2ccccc2)N1C1CCCCC1
IC50 (Plasmodium falciparum [3]): 1.13 µM
IC50 (Plasmodium falciparum [4]): 1.21 µM
IC50 (Plasmodium falciparum [2]): 1 µM
inhibition of growth at 10 µM (KB [5]): 76.8%
inhibition of growth at 100 µM (KB [6]): 99.7%
IC50 (KB [7]): 8.36 µM

IC50 (Plasmodium falciparum [1]): 4.47 µM
Structure (SMILES): [N-]=[N+]=N[C@@H]1C(=O)N(c2ccc(Cl)cc2)[C@@H]1/C=C/c1ccccc1

IC50 (Plasmodium falciparum [1]): 38.1 µM
Structure (SMILES): N[C@@H]1C(=O)N(c2ccc(Cl)cc2)[C@@H]1/C=C/c1ccccc1

Structure (SMILES): CCN(CC)CCCC(C)Nc1ccnc2cc(Cl)ccc12 (stereo unspecified) [CHLOROQUINE]
inhibition of growth at 10 µM (KB [5]): 31.4%
inhibition of growth at 100 µM (KB [6]): 97%
IC50 (KB [7]): 36 µM

Structure (SMILES): O=C1[C@@H](n2cc(-c3ccccc3)nn2)[C@@H](/C=C/c2ccccc2)N1c1ccccc1
IC50 (Plasmodium falciparum [3]): > 51 µM
IC50 (Plasmodium falciparum [4]): > 51 µM
IC50 (Plasmodium falciparum [2]): 11.7 µM
inhibition of growth at 10 µM (KB [5]): 10%
inhibition of growth at 100 µM (KB [6]): 58.3%
IC50 (KB [7]): 91.2 µM

IC50 (Plasmodium falciparum [1]): 4.7 µM
Structure (SMILES): [N-]=[N+]=N[C@@H]1C(=O)N(Cc2ccccc2)[C@@H]1/C=C/c1ccccc1

IC50 (Plasmodium falciparum [1]): 18.6 µM
Structure (SMILES): N[C@@H]1C(=O)N(C2CCCCC2)[C@@H]1/C=C/c1ccccc1

IC50 (Plasmodium falciparum [1]): 2.36 µM
Structure (SMILES): [N-]=[N+]=N[C@@H]1C(=O)N(C2CCCCC2)[C@@H]1/C=C/c1ccccc1

Structure (SMILES): COc1cc([C@@H]2c3cc4c(cc3[C@H](O)[C@H]3COC(=O)[C@H]23)OCO4)cc(OC)c1OC [PODOFILOX]
inhibition of growth at 0.5 µM (KB [8]): 81.5%
IC50 (KB [7]): 0.0005 µM

IC50 (Plasmodium falciparum [1]): 59.9 µM
Structure (SMILES): Cc1ccc(N2C(=O)[C@@H](N)[C@H]2/C=C/c2ccccc2)cc1

IC50 (Plasmodium falciparum [1]): 5.83 µM
Structure (SMILES): Cc1ccc(N2C(=O)[C@@H](N=[N+]=[N-])[C@H]2/C=C/c2ccccc2)cc1

Structure (SMILES): Cc1ccc(N2C(=O)[C@@H](n3cc(-c4ccccc4)nn3)[C@H]2/C=C/c2ccccc2)cc1
IC50 (Plasmodium falciparum [3]): 12 µM
IC50 (Plasmodium falciparum [4]): 3.42 µM
IC50 (Plasmodium falciparum [2]): 1 µM
inhibition of growth at 10 µM (KB [5]): 14.7%
inhibition of growth at 100 µM (KB [6]): 80.8%
IC50 (KB [7]): 89.2 µM
